The record followed here is paper PMC8632718, “Novel Assay Platform to Evaluate Intracellular Killing of Mycobacterium tuberculosis: In Vitro and In Vivo Validation” (Frontiers in Immunology, 2021).

In brackets after ≈: the same amount, converted by molar mass. Like-named read-outs stand apart in the source and are kept apart here. Ends that are not written are not given here.

A word on the MIC: it is the lowest concentration that inhibits growth of the organism.

For data set [1], the system named is Mtb H37Rv. The data set can be described thus: In vitro antitubercular effect, broth dilution MIC. Type of data set: cell-based. The note with it: Mycobacterium tuberculosis, 672 h, extracellular Mtb H37Rv, Sula semisynthetic medium pH 6.5, 37°C, 28 days, repeated at least two times. (In broth dilution the organism is exposed to a series of concentrations in liquid medium.)

Data set [2] concerns Mtb H37Rv-infected MonoMac-6 human monocytes. The data set can be described thus: Intracellular killing of Mycobacterium tuberculosis. The class given is cell-based.
The test system of data set [3] is Mycobacterium tuberculosis H37Rv. Kind of data set: Slow progressing murine TB model (i.p. infection), CFU in organs. The note with it: BALB/c mice, INH 20 mg/kg bw per os, twice a week for 5 weeks, 1 week after 10th treatment. The class given is in vivo, BALB/c female mice.
Data set [4] in a line: Analytical RP-HPLC retention time (correlates with overall hydrophobicity). Set-up: Rt (retention time): unit not given here. Type of data set: physicochemical. As to conditions: chromatographic measure of hydrophobicity; Waters Acquity UPLC BEH C18 (1.7 µm, 150 × 2.1 mm), flow rate 0.3 ml/min, gradient 2% B 1 min, 2%–100% B 16 min; single peak or first of two 5(6)-Cf isomer peaks. The method, then:
Purified peptides were analyzed by LC-MS using a Thermo Scientific Q Exactive Focus Hybrid Quadrupole-Orbitrap Mass Spectrometer. For the separation, a Waters Acquity UPLC BEH C18 (1.7 µm, 150 × 2.1 mm) column was used with a flow rate of 0.3 ml/min.
For INH conjugation, representative cell-penetrating (CPP) and antimicrobial peptides (AMP) were chosen. These cationic, amphiphilic peptides are favored in the transportation of various cargos due to their high internalization rate. The used peptide series contains well-known CPPs such as penetratin, transportan, and Tat, frequently studied AMPs such as magainin and buforin, and designed analogs such as Dhvar4, Crot(1-9,38-42), and CM15. Also, a receptor-binding tuftsin analog (OT20), which was reported as a macrophage-targeting peptide, was also applied. […] Mass spectra and RP-HPLC chromatograms are available at https://figshare.com/s/48a023a25068f7658adf, DOI: 10.6084/m9.figshare.16644901. […] To study the internalization rate and intracellular localization, fluorescently labeled analogs were also synthesized. Note that the retention time of Cf-peptide are somewhat higher than unlabeled analogs, and in some cases, two peaks were detected due to the isomeric distribution of 5(6)-Cf molecule.

Data set [5] concerns CALU-1 monolayer / EBC-1 cells. The class given is in vitro ADME, human. As to conditions: Transwell, 0.4 µm polycarbonate, Cf-peptide apical 10 and 20 µM, 45 min, apical to basolateral; EBC-1 fluorescence read-out. The method, then: EBC-1 lung squamous carcinoma and CALU-1 human lung epidermoid carcinoma were seeded on 24-well plates with Transwell inserts (TW) [Nunc, Sigma polycarbonate microporous membrane, 0.4 µm pore size (growth area 0.412 cm^2)]. Before use, TW inserts were incubated with ICM. On day 1, 300 μl of CALU-1 suspension in complete DMEM medium (8.0 × 10^5 cells) was pipetted onto the surface of the TW apical chamber and 500 μl complete DMEM medium was added to the basolateral side. In order to avoid nonattached cells, after incubation at 37°C for 5–6 h, the apical medium was removed and replaced with fresh complete DMEM medium. […] On day 5, the medium was changed, then Cf-peptide was added to the CALU-1-containing apical side at 10 and 20 µM concentrations, and the system was incubated for 45 min or 3 h (37°C, 5% CO2). The TW chamber was removed after incubation. EBC-1 cells were studied using flow cytometry (BD LSR II).
EBC-1 cells were treated without the presence of the TW inserts as controls (on day 4 prior to treatment, EBC-1 cells (10^5 cells/well in complete DMEM). […]
Figure 7 The penetration ability of Cf-peptides was determined on Transwell bronchial interface, and the penetration rates were quantified by flow cytometry. […] The confluence of CALU-1 monolayer was monitored with CellTracker Green, and after development of stable green fluorescence, cells were imaged in situ. […]

In data set [6] the test system is EBC-1 cells. The class given is cell-based, human. The note with it: 10 µM, 3 hrs, fixed, 30 profiles. How it is done:
In addition to the internalization experiments, the surface morphology of INH-peptide-treated and fixed EBC-1 cells was also studied with atomic force microscopy (AFM) ( Supplementary Information 1.3 ). High-resolution imaging of the cell surfaces was performed with a Flex-Axiom AFM system (Nanosurf, Liestal, Switzerland).The representative images and surface roughness of the native and treated cells are shown in Supplementary Figure S2 .
1.3 Membrane integrity evaluation by atomic force microscopy (AFM) […]
High resolution imaging of the surfaces were performed with a Flex-Axiom AFM system (Nanosurf, Liestal, Switzerland) operating in dynamic mode utilizing soft-tapping cantilevers (Tap150-G, BudgetSensors) with nominal force constant of 5 N/m. The recorded images were evaluated with the Gwyddion software. […]
Two cut-off frequencies were chosen with real-space wavelengths of 1 μm and 200 nm. […] Figure 2D,E,F. Scale dependent surface roughness of the cells was determined according to Antonio et al. Mean Rq values are somewhat higher in the peptide and conjugate treated cells, but […]
Supplementary Figure 2. […] The apex area of the cells was selected for imaging with a scan area of 5 μm × 5 μm (512 × 512 pixel resolution), where the cellular curvature has the smallest distortion effect on the recorded height profiles. […]
1.4. […] To quantify […]

The subject of data set [7] is MonoMac-6 cells. The class given is cell-based, human. The note with it: 10 µM Cf-peptide, 2 h, LysoTracker, ImageJ JACoP on merged images.
Procedure: Cellular uptake and localization were visualized by confocal laser scanning microscopy. MonoMac-6 cells were seeded 1 day prior to treatment into coverslips (thickness 1, Assistent, Karl Hecht GmbH, Sondheim vor der Rhön, Germany) containing a 24-well plate (Sarstedt, Nümbrecht, Germany) for microscopy studies at a density of 7.5 × 10^4 cells/well, in 1 ml complete DMEM medium. The following day, cells were treated with Cf-peptide at a concentration of 10 µM (diluted in serum-free DMEM medium) for 2 h. Lysosomes were stained by LysoTracker Deep Red (Invitrogen, Waltham, MA, USA) for 30 min, and nuclei were stained by Hoechst 33342 solution (Thermo Scientific, USA). After each step, cells were washed three times with serum-free medium, then cells were fixed by 4% paraformaldehyde for 15 min and mounted to microscopy slides with Mowiol 4-88 (Sigma, Budapest, Hungary). Imaging was performed by a Zeiss LSM-710 system (Carl Zeiss microscopy GmbH, Oberkochen, Germany) with a ×40/1.4 Plan-Apochromat oil immersion objective using lasers with the parameters: Cf peptides λex = 488 nm, λem = 541 nm, nuclei λex = 405 nm, λem = 467 nm (Hoechst 33342), lysosomes λex = 633 nm, λem = 720 nm (LysoTrackerTM Deep Red) or λex = 577 nm, λem = 590 nm (LysoTrackerTM Red DND-99) were used. Zeiss ZEN lite software (Carl Zeiss Microscopy GmbH, Jena, Germany) was used for image processing.
Parallel with flow cytometry measurements, confocal laser scanning microscopy images were also captured in order to assess qualitative information on intracellular localization. LysoTrackerTM Deep Red was used for lysosome and Hoechst 33342 for nuclear staining to distinguish subcellular localization of the Cf-peptide. […] Colocalization of Cf-peptide and LysoTracker may be subjectively identified by the cooccurrence, the simple spatial overlap which combined the contribution of both signals (green and red) when the images of each signal are superimposed (merged, see Supplementary Figure S3 ).
microscopy at the 10 µM Cf-peptide concentration (based on flow cytometry profile), and MonoMac6 cells were incubated for 2 hrs.
the visible differences among localization profiles of the Cf-peptides, we applied greyscale analysis of
the images and the evaluation was carried out on a representative peptide set.
were studied and the treatment, the staining and fixation process were carefully optimized to assess
Laser intensity values were identical in case of all Cf-peptides. ZEN 3.0 blue lite software
was used for image processing and grey scale values were extracted using NIH ImageJ software’s Plot
Data set [8] concerns EBC-1 spheroids. Kind of data set: Penetration into EBC-1 3D spheroids (confocal line scan). Type of data set: cell-based, human. As to conditions: 10 µM, 3 h, confocal z-stack to 55 µm, line scan n = 16. How it is done:
In this study, we have employed a modified method based on ([55]). Briefly, micromolds for casting 3D Petri dishes (MicroTissues, Sigma, 5 × 7 array) were filled with molten agarose (2% (w/v) in PBS). The gelled agarose dishes were equilibrated with serum-free DMEM (2 ml/2 h, 37°C). Cells were seeded after incubation (1.8 × 10^4 cell/µL in DMEM CM). Prior to seeding process, nuclei were stained with Hoechst 33342 solution (0.2 µM) for 30 min ( Figure 2 ). Based on our previous work ([55]), the nuclear stain could not successfully penetrate into deeper layers of the spheroids (mostly localized at the spheroid surface), and towards the center of the spheroids the Hoechst 33342 signal was gradually decreasing. Stained cells were incubated in 2 ml DMEM CM for 48 h while cell-to-cell adhesion drives the aggregation and formation of spheroids. To monitor the condition of the spheroids, bright-field images were captured (Olympus CX41). After 48 h of incubation, spheroids were washed two times with fresh ICM DMEM and were treated with the Cf-Dhvar4 peptide (10 µM/2 ml ICM DMEM for 3 h). […] Line scan analysis was performed by NIH ImageJ software, two spheroids were analyzed (eight scans per spheroid, n = 16 in total). […]
Next, we assessed the penetration ability of Cf-Dhvar4 peptide on spheroids formed from EBC-1 cells. […]

For the compound `NNC(=O)c1ccncc1` [INH, isoniazid], the MIC in data set [1] lay within 0.1 to 0.5 µM (≈ 0.0137 to 0.0686 µg/mL). In data set [2] (5, 10, 50 µM, treated two times for 3 + 3 days, SDS lysis, CFU on Löwenstein-Jensen after 4 weeks), the “intracellular killing efficacy (CFU)” value is “not effective”. Besides, the “Mtb CFU in spleen” value in data set [3] (INH-Dhvar4 30 mg/kg bw s.c.) is given as “moderate decrease”. In data set [3], the “Mtb CFU in lung” value is on record as “Clearance of Mtb from the lung”.
“KRLFKKLLFSLRKY-NH2 [Dhvar4, reference compound]”: the “Rt (retention time)” value in data set [4] was 6.9. Also, the “penetration through CALU-1 monolayer and internalization into EBC-1 cells” value in data set [5] is “higher internalization rates”. In addition, the “intracellular killing efficacy (CFU)” value in data set [2] is recorded as “not effective”. Moreover, the “membrane integrity (AFM surface roughness Rq)” value in data set [6] is “membrane integrity maintained”.
For “Cf-RAGLQFPVGRVHRLLRK [Cf-Dhvar4, 5(6)-carboxyfluorescein-labeled Dhvar4]”, the “Pearson's coefficient of colocalization with lysosomal staining” value in data set [7] was found to be 0.249. Also, the “penetration ability on EBC-1 spheroids” value in data set [8] is “fair penetration ability”.
